Patent US7087762B2, “Long-lasting antimicrobial reaction product of allantoin and formaldehyde containing a low level of free formaldehyde” (ISP Investments Inc., priority 2002, dated 2006)

How the values were obtained:
BC (B. cepacia) = assay: Preservative challenge test, nonionic emulsion; format: cell-based, Burkholderia cepacia
Procedure: (§1) A typical cosmetic emulsion was prepared for microbiological challenge testing and predetermined admixtures of a methylol compound and IPBC were added at various use levels. The emulsion thus prepared had the following composition:
(§2) The challenge tests were carried out using the following microorganisms: SA, ECOLI, PSA, PC, AN and CAN, in this manner. 50 g aliquots of the test emulsion containing various amounts of the preservative admixture were inoculated with approximately 10^7–10^8 of the challenge organisms. The test samples then were stirred to disperse the challenge inoculum. The samples were incubated and assayed at 48 hours, 7, 14, 21 and 28 days. The assays were performed on 1 g of the test sample by serially diluting 10^1 to 10^6 of the original concentration. The plating medium for bacteria was Letheen agar and for fungi it was low pH Mycophil agar with Tween 20. Each plated sample was incubated for 48 hours at 37° C. for bacteria, 5 days at 25° C. for mold, and 3 days at 25° C. for fungi. After incubation, readings of the number of colonies per milliliter (cfu/ml) were made. At 21 days the test product was reinoculated with half of the original inoculum.

[1] = test system: EC (ECOLI, Escherichia coli); assay: Preservative challenge test, screening emulsion; format: cell-based
Procedure: as §1
(§3) To prepare the emulsion, Phases A and B were heated separately to 75°–80° C. Phase A then was added to Phase B with mixing. The mixture then was cooled to 55°–60° C. At this point the desired amount of the preservative admixture was added and the product was cooled to 50° C. while stirring. The citric acid solution then was added to adjust the pH and the mixture was stirred until a temperature of 30° C. was reached.
as §2

AN (Aspergillus niger) = assay: Preservative challenge test, screening emulsion; format: cell-based
Procedure: as §1, §3, §2

CAN (Candida albicans) = assay: Preservative challenge test, screening emulsion; format: cell-based
Procedure: as §1, §3, §2

[2] = test system: SA (Staphylococcus aureus); assay: Preservative challenge test, screening emulsion; format: cell-based
Procedure: as §1, §3, §2

[3] = test system: PSA (Pseudomonas aeruginosa); assay: Preservative challenge test, screening emulsion; format: cell-based
Procedure: as §1, §3, §2

C. Albican ATTC1023 = assay: Activity against yeast and mold, 0.3% test solutions; format: cell-based, Candida albicans; parameters: key: + Growth; − No Growth
Source text: Activity against yeast and mold:

O=C1C(N(CO)C(=O)NCO)N(CO)C(=O)N1CO (stereo not drawn) [Germall II]
78,000 cfu/ml: cfu/ml, 7 days (CAN (Candida albicans); 1000 ppm)
290,000 cfu/ml: cfu/ml, 48 hrs (CAN (Candida albicans); 250 ppm)
50,000 cfu/ml: cfu/ml, 48 hrs (AN (Aspergillus niger); 250 ppm)
210,000 cfu/ml: cfu/ml, 28 days (CAN (Candida albicans); 1000 ppm) | cfu/ml, 28 days (CAN (Candida albicans); 2000 ppm)
610 cfu/ml: cfu/ml, 48 hrs ([1]; 500 ppm)
63,000 cfu/ml: cfu/ml, 14 days (CAN (Candida albicans); 1000 ppm)
680,000 cfu/ml: cfu/ml, 28 days (CAN (Candida albicans); 250 ppm)
17,000 cfu/ml: cfu/ml, 48 hrs ([2]; 500 ppm)
46,000 cfu/ml: cfu/ml, 21 days (CAN (Candida albicans); 250 ppm)
90,000 cfu/ml: cfu/ml, 14 days (CAN (Candida albicans); 500 ppm)
48,900 cfu/ml: cfu/ml, 14 days (CAN (Candida albicans); 2000 ppm)
320,000 cfu/ml: cfu/ml, 21 days (CAN (Candida albicans); 500 ppm)
490,000 cfu/ml: cfu/ml, 21 days (CAN (Candida albicans); 2000 ppm)
170,000 cfu/ml: cfu/ml, 7 days (CAN (Candida albicans); 250 ppm) | cfu/ml, 48 hrs (CAN (Candida albicans); 500 ppm)
<10 cfu/ml: cfu/ml, 48 hrs (BC (B. cepacia); 2000 ppm) | cfu/ml, 7 days (BC (B. cepacia); 2000 ppm) | cfu/ml, 14 days (BC (B. cepacia); 2000 ppm) | cfu/ml, 21 days (BC (B. cepacia); 2000 ppm) | cfu/ml, 28 days (BC (B. cepacia); 2000 ppm) | cfu/ml, 48 hrs (BC (B. cepacia); 4000 ppm) | cfu/ml, 7 days (BC (B. cepacia); 4000 ppm) | cfu/ml, 14 days (BC (B. cepacia); 4000 ppm) | cfu/ml, 21 days (BC (B. cepacia); 4000 ppm) | cfu/ml, 28 days (BC (B. cepacia); 4000 ppm) | cfu/ml, 7 days ([1]; 250 ppm) | cfu/ml, 14 days ([1]; 250 ppm) | cfu/ml, 21 days ([1]; 250 ppm) | cfu/ml, 28 days ([1]; 250 ppm) | cfu/ml, 7 days ([1]; 500 ppm) | cfu/ml, 14 days ([1]; 500 ppm) | cfu/ml, 21 days ([1]; 500 ppm) | cfu/ml, 28 days ([1]; 500 ppm) | cfu/ml, 48 hrs ([1]; 1000 ppm) | cfu/ml, 7 days ([1]; 1000 ppm) | cfu/ml, 14 days ([1]; 1000 ppm) | cfu/ml, 21 days ([1]; 1000 ppm) | cfu/ml, 28 days ([1]; 1000 ppm) | cfu/ml, 48 hrs ([1]; 2000 ppm) | cfu/ml, 7 days ([1]; 2000 ppm) | cfu/ml, 14 days ([1]; 2000 ppm) | cfu/ml, 21 days ([1]; 2000 ppm) | cfu/ml, 28 days ([1]; 2000 ppm) | cfu/ml, 7 days (AN (Aspergillus niger); 250 ppm) | cfu/ml, 14 days (AN (Aspergillus niger); 250 ppm) | cfu/ml, 21 days (AN (Aspergillus niger); 250 ppm) | cfu/ml, 7 days (AN (Aspergillus niger); 500 ppm) | cfu/ml, 14 days (AN (Aspergillus niger); 500 ppm) | cfu/ml, 21 days (AN (Aspergillus niger); 500 ppm) | cfu/ml, 28 days (AN (Aspergillus niger); 500 ppm) | cfu/ml, 48 hrs (AN (Aspergillus niger); 1000 ppm) | cfu/ml, 7 days (AN (Aspergillus niger); 1000 ppm) | cfu/ml, 14 days (AN (Aspergillus niger); 1000 ppm) | cfu/ml, 21 days (AN (Aspergillus niger); 1000 ppm) | cfu/ml, 28 days (AN (Aspergillus niger); 1000 ppm) | cfu/ml, 48 hrs (AN (Aspergillus niger); 2000 ppm) | cfu/ml, 7 days (AN (Aspergillus niger); 2000 ppm) | cfu/ml, 14 days (AN (Aspergillus niger); 2000 ppm) | cfu/ml, 21 days (AN (Aspergillus niger); 2000 ppm) | cfu/ml, 28 days (AN (Aspergillus niger); 2000 ppm) | cfu/ml, 7 days ([2]; 250 ppm) | cfu/ml, 14 days ([2]; 250 ppm) | cfu/ml, 21 days ([2]; 250 ppm) | cfu/ml, 28 days ([2]; 250 ppm) | cfu/ml, 7 days ([2]; 500 ppm) | cfu/ml, 14 days ([2]; 500 ppm) | cfu/ml, 21 days ([2]; 500 ppm) | cfu/ml, 28 days ([2]; 500 ppm) | cfu/ml, 48 hrs ([2]; 1000 ppm) | cfu/ml, 7 days ([2]; 1000 ppm) | cfu/ml, 14 days ([2]; 1000 ppm) | cfu/ml, 21 days ([2]; 1000 ppm) | cfu/ml, 28 days ([2]; 1000 ppm) | cfu/ml, 48 hrs ([2]; 2000 ppm) | cfu/ml, 7 days ([2]; 2000 ppm) | cfu/ml, 14 days ([2]; 2000 ppm) | cfu/ml, 21 days ([2]; 2000 ppm) | cfu/ml, 28 days ([2]; 2000 ppm) | cfu/ml, 48 hrs ([3]; 250 ppm) | cfu/ml, 7 days ([3]; 250 ppm) | cfu/ml, 14 days ([3]; 250 ppm) | cfu/ml, 21 days ([3]; 250 ppm) | cfu/ml, 28 days ([3]; 250 ppm) | cfu/ml, 48 hrs ([3]; 500 ppm) | cfu/ml, 7 days ([3]; 500 ppm) | cfu/ml, 14 days ([3]; 500 ppm) | cfu/ml, 21 days ([3]; 500 ppm) | cfu/ml, 28 days ([3]; 500 ppm) | cfu/ml, 48 hrs ([3]; 1000 ppm) | cfu/ml, 7 days ([3]; 1000 ppm) | cfu/ml, 14 days ([3]; 1000 ppm) | cfu/ml, 21 days ([3]; 1000 ppm) | cfu/ml, 28 days ([3]; 1000 ppm) | cfu/ml, 48 hrs ([3]; 2000 ppm) | cfu/ml, 7 days ([3]; 2000 ppm) | cfu/ml, 14 days ([3]; 2000 ppm) | cfu/ml, 21 days ([3]; 2000 ppm) | cfu/ml, 28 days ([3]; 2000 ppm)
930,000 cfu/ml: cfu/ml, 28 days (CAN (Candida albicans); 500 ppm)
9,600 cfu/ml: cfu/ml, 7 days (CAN (Candida albicans); 2000 ppm)
150 cfu/ml: cfu/ml, 48 hrs (CAN (Candida albicans); 2000 ppm)
260,000 cfu/ml: cfu/ml, 21 days (CAN (Candida albicans); 1000 ppm)
55,000 cfu/ml: cfu/ml, 48 hrs ([2]; 250 ppm)
5500 cfu/ml: cfu/ml, 48 hrs ([1]; 250 ppm)
100,000 cfu/ml: cfu/ml, 7 days (CAN (Candida albicans); 500 ppm)
−: Growth, C. Albican ATTC1023 (C. Albican ATTC1023)
160,000 cfu/ml: cfu/ml, 48 hrs (CAN (Candida albicans); 1000 ppm)
100 cfu/ml: cfu/ml, 28 days (AN (Aspergillus niger); 250 ppm)
40 cfu/ml: cfu/ml, 48 hrs (AN (Aspergillus niger); 500 ppm)
71,000 cfu/ml: cfu/ml, 14 days (CAN (Candida albicans); 250 ppm)
